Columns and labels:
60-cell line panel = assay: NCI DTP cancer cell growth inhibition, 60-cell line panel overall; type: cell-based; conditions: across the 60-cell line panel
Description: (§1) A detailed evaluation of cancer cell growth inhibition effect for T111-T115 was conducted by the NIH-National […] (NCI) Developmental Therapeutic Program (DTP) (FIG. 4). A large negative number denotes stronger activity.

[1] = tested on: NCI-H322M cells associated with non-small cell lung cancer; assay: NCI DTP cancer cell growth inhibition, NCI-H322M; type: cell-based; conditions: a large negative number denotes stronger activity
Description: as §1

[2] = tested on: NCI-H522 cells associated with non-small cell lung cancer; assay: NCI DTP cancer cell growth inhibition, NCI-H522; type: cell-based; conditions: a large negative number denotes stronger activity
Description: as §1

[3] = tested on: EKVX cells associated with non-small cell lung cancer; assay: NCI DTP cancer cell growth inhibition, EKVX; type: cell-based; conditions: a large negative number denotes stronger activity
Description: as §1

Structure (SMILES) | melting point [°C] | overall growth inhibition performance (60-cell line panel) | growth inhibition (log 10GI50) [1] | growth inhibition (log 10GI50) [2] | growth inhibition (log 10GI50) [3]
COc1ccc(-n2cnnc2-c2cc(OC)c(OC)c(OC)c2)cc1 [Compound T111, 3-(3,4,5-trimethoxyl)phenyl-4-(4-methoxyl)phenyl-1,2,4(H)triazole] | 163 to 165 |  |  |  | 
COc1cc(-c2nncn2-c2ccc(N(C)C)cc2)cc(OC)c1OC [Compound T112, 3-(3,4,5-trimethoxyl)phenyl-4-(N,N-dimethylamino) phenyl-1,2,4(H)triazole] | 145 to 147 |  |  |  | 
COc1cc(-c2nncn2-c2ccc3c(ccn3C)c2)cc(OC)c1OC [Compound T115] | 157 to 159 | performed uniformly well | < −8.00 | < −8.00 | < −8.00

The next lines start with results.

melting point [°C] | Structure (SMILES) | overall growth inhibition performance (60-cell line panel) | growth inhibition (log 10GI50) [1] | growth inhibition (log 10GI50) [2] | growth inhibition (log 10GI50) [3]
151 to 152 | COc1ccc(-n2cnnc2-c2cc(OC)c(OC)c(OC)c2)cc1F |  |  |  | 
197 to 198 | COc1ccc(-n2cnnc2-c2cc(OC)c(OC)c(OC)c2)cc1O [Compound T113, 3-(3,4,5-trimethoxyl)phenyl-4-(3-hydroxyl, 4-methoxyl)phenyl-1,2,4(H)triazole] |  |  |  | 

Reference: patent US8569350B2, “Anti-mitotic anti-proliferative compounds” (Rutgers, The State University of New Jersey, priority 2004, dated 2013)
